In one experiment the test system is HCT116 MTAP null cells. As to the kind of experiment: HCT116 MTAP null cell proliferation / viability (CellTiter-Glo, 6 days). Format: cell-based. Conditions: HCT116-MTAP null, 144 h, HCT116 MTAP null cells, 6 days, CellTiter-Glo; read-out: HCT-116 MTAP null IC50. Summed up:
(§1)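 CellTiter-Glo luminescence, 6-day exposure, RPMI 1640 + 10% FBS. Dosing: 1:3 series (8-9 pts, top 1 or 10 μM) or 1:2 series (22 pts, top 10 or 50 μM), DMSO control. IC50 = 50% of control via curve fit.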
A general note: ATP-based viability assays read luminescence as a measure of living cells.

A further experiment relates to HCT116 WT cells. As to the kind of experiment: HCT116 WT cell proliferation / viability (CellTiter-Glo, 6 days). The experiment is classed as cell-based. Conditions: Homo sapiens, HCT-116, 144 h, HCT116 WT cells, 6 days, CellTiter-Glo; read-out: HCT-116 WT IC50. The procedure, abridged:
as §1

Each structure is given as a SMILES string.

The IC50 is the point on the concentration scale where inhibition reaches its midpoint.

Turning to `Nc1nc2cc(F)c(C(=O)N(Cc3ccc(C4CC4)cn3)C3CC3)cc2c2c1COC2` [Example 370, 4-amino-N-cyclopropyl-N-((5-cyclopropyl-2-pyridinyl)methyl)-7-fluoro-1,3-dihydrofuro[3,4-c]quinoline-8-carboxamide], the IC50 is 0.029 µM in the experiment with HCT116 MTAP null cells and 1.37 µM with HCT116 WT cells.
Consider `CC(C)N(Cc1ccc(C2CC2)cn1)C(=O)c1cc2c3c(c(N)nc2cc1F)COC3` [Example 371, 4-amino-N-((5-cyclopropyl-2-pyridinyl)methyl)-7-fluoro-N-(2-propanyl)-1,3-dihydrofuro[3,4-c]quinoline-8-carboxamide], for which the IC50 in the experiment on HCT116 MTAP null cells came out at 0.01 µM; in the experiment with HCT116 WT cells, 0.288 µM.
With `CN(Cc1ccc(C2CC2)cn1)C(=O)c1cc2c3c(c(N)nc2cc1F)COC3` [Example 372, 4-amino-N-((5-cyclopropyl-2-pyridinyl)methyl)-7-fluoro-N-methyl-1,3-dihydrofuro[3,4-c]quinoline-8-carboxamide], the figures for the IC50 in the experiment with HCT116 MTAP null cells and with HCT116 WT cells were 0.11 µM and 5.61 µM, respectively.
With `CCOc1ccc(CN(C(=O)c2ccc3nc(N)c4c(c3c2)COC4)[C@H](C)COC)nn1` [Example 373, 4-amino-N-((6-ethoxy-3-pyridazinyl)methyl)-N-((2R)-1-methoxy-2-propanyl)-1,3-dihydrofuro[3,4-c]quinoline-8-carboxamide], the IC50 with HCT116 MTAP null cells is 0.022 µM; with HCT116 WT cells, 2.98 µM.
For `CCOc1ccc(CN(C(=O)c2ccc3nc(N)c4c(c3c2)CO[C@@H]4C)[C@H](C)COC)nn1` [Example 374, (3R)-4-amino-N-((6-ethoxy-3-pyridazinyl)methyl)-N-((2R)-1-methoxy-2-propanyl)-3-methyl-1,3-dihydrofuro[3,4-c]quinoline-8-carboxamide], the 50% inhibitory concentration (IC50) with HCT116 MTAP null cells came to 0.014 µM; with HCT116 WT cells it was 0.286 µM.
For `CN(Cc1ccc(C(F)(F)F)nn1)C(=O)c1cc2c3c(c(N)nc2cn1)COC3` [Example 375, 4-amino-N-methyl-N-((6-(trifluoromethyl)-3-pyridazinyl)methyl)-1,3-dihydrofuro[3,4-c][1,7]naphthyridine-8-carboxamide], the IC50 was 1.5 µM in the experiment with HCT116 MTAP null cells and 6.89 µM with HCT116 WT cells.
The like results for `C[C@H]1OCc2c1c(N)nc1ccc(C(=O)N(C)Cc3ccc(C(F)(F)F)cn3)cc21` [Example 376, (3R)-4-amino-N,3-dimethyl-N-((5-(trifluoromethyl)-2-pyridinyl)methyl)-1,3-dihydrofuro[3,4-c]quinoline-8-carboxamide] were, in that order, 0.222 µM and 15.2 µM.
On to `CC(C)N(Cc1ccc(C2CC2)cn1)C(=O)c1ccc2nc(N)c3c(c2c1)CO[C@@H]3C` [Example 377, (3R)-4-amino-N-((5-cyclopropyl-2-pyridinyl)methyl)-3-methyl-N-(2-propanyl)-1,3-dihydrofuro[3,4-c]quinoline-8-carboxamide], for which the figures for the IC50 with HCT116 MTAP null cells and in the experiment with HCT116 WT cells were 0.049 µM and 2.06 µM, respectively.
For `CCOc1ccc(CN(C(=O)c2cc3c4c(c(N)nc3cn2)COC4)C23CC(C2)C3)nn1` [Example 378, 4-amino-N-(bicyclo[1.1.1]pentan-1-yl)-N-((6-ethoxy-3-pyridazinyl)methyl)-1,3-dihydrofuro[3,4-c][1,7]naphthyridine-8-carboxamide] the same measures were 0.294 µM and 9.43 µM.
For `CC(C)N(Cc1ccc(C2CC2)cn1)C(=O)c1cc2c3c(c(N)nc2cc1Cl)COC3` [Example 379, 4-amino-7-chloro-N-((5-cyclopropyl-2-pyridinyl)methyl)-N-(2-propanyl)-1,3-dihydrofuro[3,4-c]quinoline-8-carboxamide], the IC50 was 0.025 µM in the experiment with HCT116 MTAP null cells and 0.764 µM with HCT116 WT cells.
Take `C[C@H]1OCc2c1c(N)nc1ccc(C(=O)N(Cc3ccc(C(F)(F)F)cn3)C34CC(C3)C4)cc21` [Example 380, (3R)-4-amino-N-(bicyclo[1.1.1]pentan-1-yl)-3-methyl-N-((5-(trifluoromethyl)-2-pyridinyl)methyl)-1,3-dihydrofuro[3,4-c]quinoline-8-carboxamide]: the half-inhibitory concentration (IC50) in the experiment with HCT116 MTAP null cells stood at 0.056 µM; in the experiment on HCT116 WT cells it was 4.1 µM.
For `Nc1nc2cc(F)c(C(=O)N(Cc3ccc(C(F)(F)F)cn3)C34CC(C3)C4)cc2c2c1COC2` [Example 381, 4-amino-N-(bicyclo[1.1.1]pentan-1-yl)-7-fluoro-N-((5-(trifluoromethyl)-2-pyridinyl)methyl)-1,3-dihydrofuro[3,4-c]quinoline-8-carboxamide] the same measures were 0.008 µM and 1.56 µM.
For `Nc1nc2cnc(C(=O)N(Cc3ccc(C(F)(F)F)nn3)C3CC3)cc2c2c1COC2` [Example 382, 4-amino-N-cyclopropyl-N-((6-(trifluoromethyl)-3-pyridazinyl)methyl)-1,3-dihydrofuro[3,4-c][1,7]naphthyridine-8-carboxamide], the values for the IC50 with HCT116 MTAP null cells and in the experiment on HCT116 WT cells were 1.16 µM and 22.8 µM, respectively.
For the compound `CC(C)N(Cc1ccc(C2CC2)nc1)C(=O)c1cc2c3c(c(N)nc2cn1)COC3` [Example 383, 4-amino-N-((6-cyclopropyl-3-pyridinyl)methyl)-N-(2-propanyl)-1,3-dihydrofuro[3,4-c][1,7]naphthyridine-8-carboxamide], the values for the IC50 in the experiment on HCT116 MTAP null cells and in the experiment on HCT116 WT cells were 1.31 µM and 43 µM, respectively.
The like results for `CC(C)N(Cc1ccc(C(F)(F)F)cn1)C(=O)c1ccc2nc(N)c3c(c2c1)CO[C@@H]3C` [Example 384, (3R)-4-amino-3-methyl-N-(2-propanyl)-N-((5-(trifluoromethyl)-2-pyridinyl)methyl)-1,3-dihydrofuro[3,4-c]quinoline-8-carboxamide] were, in that order, 0.053 µM and 1.38 µM.
As for `CC(C)N(Cc1ccc(C2CC2)cn1)C(=O)c1cc2c3c(c(N)nc2cn1)COC3` [Example 385, 4-amino-N-((5-cyclopropyl-2-pyridinyl)methyl)-N-(2-propanyl)-1,3-dihydrofuro[3,4-c][1,7]naphthyridine-8-carboxamide], the IC50 with HCT116 MTAP null cells came to 0.157 µM; with HCT116 WT cells, 7.29 µM.
`C[C@H]1OCc2c1c(N)nc1ccc(C(=O)N(C)Cc3ccc(C#N)cn3)cc21` [Example 386, (3R)-4-amino-N-((5-cyano-2-pyridinyl)methyl)-N,3-dimethyl-1,3-dihydrofuro[3,4-c]quinoline-8-carboxamide]: the IC50 with HCT116 MTAP null cells stood at 0.455 µM; in the experiment with HCT116 WT cells, 30.3 µM.
For `CCOc1ccc(CN(C(=O)c2ccc3nc(N)c4c(c3c2)COC4)C23CC(C2)C3)nn1` [Example 387, 4-amino-N-(bicyclo[1.1.1]pentan-1-yl)-N-((6-ethoxy-3-pyridazinyl)methyl)-1,3-dihydrofuro[3,4-c]quinoline-8-carboxamide] the same measures were 0.175 µM and 4.04 µM.
For `CCOc1ccc(CN(C(=O)c2cc3c4c(c(N)nc3cn2)COC4)[C@H](C)COC)nn1` [Example 388, 4-amino-N-((6-ethoxy-3-pyridazinyl)methyl)-N-((2R)-1-methoxy-2-propanyl)-1,3-dihydrofuro[3,4-c][1,7]naphthyridine-8-carboxamide] the same measures were 0.054 µM and 1.28 µM.
Consider `CN(Cc1ccc(C(F)(F)F)nn1)C(=O)c1cc2c3c(c(N)nc2cc1Cl)COC3` [Example 389, 4-amino-7-chloro-N-methyl-N-((6-(trifluoromethyl)-3-pyridazinyl)methyl)-1,3-dihydrofuro[3,4-c]quinoline-8-carboxamide], for which the 50% inhibitory concentration (IC50) is 0.05 µM in the experiment with HCT116 MTAP null cells and 3.39 µM in the experiment with HCT116 WT cells.

Values taken from patent US20240101570A1 (AMGEN INC., priority 2020, published 2024).
